Values after ≈ are worked out from the molar mass of the structure shown. Counter-ions that a name gives are not always drawn. Like-named read-outs stand apart in the source and are kept apart here.

A short description of series [1]: Solubility of the exemplary drugs in water at 25° C. In kind it is physicochemical. As to the method:
Solubility of the exemplary drugs in water at 25° C. is as follows: […]

A short description of series [2]: Drug release from the erodible matrix, USP dissolution test (Basket or Paddle Method). The series is classed as physicochemical. Conditions: in the given dissolution medium; FIGS. 2-7 and 9-15; FIG. 8 (chlorpheniramine maleate composition with the polymer, water, 37° C., Basket Method, 100 rpm).
Method: The evaluation of drug release from the erodible matrix was performed using the USP dissolution test procedure with either the Basket or Paddle Method at the speed as specified. […] Briefly, in both methods, one tablet is placed in the appropriate apparatus described below containing the specified amount of dissolution medium and the stirring element is started. The amount of drug in solution is determined by the UV spectrophotometric method as is known in the art. The assembly used in the Basket Method consists of the following: a covered vessel made of glass with nominal capacity 1000 mL; a motor; a metallic drive shaft; and a cylindrical basket. The vessel containing 900 mL of the specified dissolution medium (i.e., water, 1% nonionic surfactant Emulphor ON-870 in phosphate buffer, pH 7.5 or 3% sodium lauryl sulfate, pH 9.0) is partially immersed in a suitable water bath and equilibrated at 37°±0.5° C. A fitted cover may be used to retard evaporation. The shaft is positioned so that its axis is not more than 2 mm at any point from the vertical axis of the vessel and rotates smoothly and without significant wobble. A speed-regulating device is used that allows the shaft rotation speed to be selected and maintained at the specified rate. The recommended basket speed is 100 rpm. […] The drug analysis was determined by UV spectrophotometry.
Setting [3] is: in water at 25° C., read-out: Solubility.

Turning to `O=C(CCCCCCCCc1cccnc1)N1CCC(C=C(c2ccccc2)c2ccccc2)CC1` [4-(2,2-Diphenylethenyl)-1-[1-oxo-9-(3-pyridinyl)nonyl]piperidine], the solubility (in general, the concentration that dissolves in the medium under given conditions) in series [1] (setting [3]) was 0.182 µg/mL (≈ 0.379 µM).

`CNC1=Nc2ccc(Cl)cc2C(c2ccc[nH]2)=NC1` [7-Chloro-N-methyl-5-(1H-pyrrol-2-yl)-3H-1,4-benzodiazepin-2-amine]: the solubility in series [1] (setting [3]) came to 1.5 µg/mL (≈ 5.5 µM).

Turning to `Cc1nnc2n1-c1sc(C#CCn3c(=O)c4ccccc4c4ccccc43)cc1C(c1ccccc1Cl)=NC2` [5-[3-[4-(2-Chlorophenyl)-9-methyl-6H-thieno[3,2-f][1,2,4]triazolo[4,3-a][1,4]diazepin-2-yl]-2-propynyl]phenanthrydin-6(5H)-one], the concentration in solution in series [1] (water) (solubility) was 0.01 µg/mL (≈ 0.0183 µM).

`CN(C)CCC(c1ccc(Cl)cc1)c1ccccn1` (stereo not drawn) [chlorpheniramine maleate]: the “Release profile (zero order)” value in series [2] is “does not produce a zero-order release profile”.

Regarding `CCC(CC)(CC(=O)Nc1cccc(/C=C/c2nc(C3CCC3)cs2)c1)C(=O)O` [(E)-4-[[3-[2-(4-Cyclobutyl-2-thiazolyl)ethenyl]phenyl]amino]-2,2-diethyl-4-oxobutanoic acid], in series [1] (setting [3]), the solubility is less than 2 µg/mL.

As for `COc1ccc([C@@H]2Sc3c(ccc4ccccc34)N(CCN(C)C)C(=O)[C@@H]2OC(C)=O)cc1` (single isomer, unassigned) [(+)-cis-3-(Acetyloxy)-2,3-dihydro-2-(4-methoxyphenyl)-5-[2-(dimethylamino)ethyl]naphtho[1,2-b]-1,4-thiazepin-4(5H)-one], in series [1] (setting [3]), the solubility was 80000 µg/mL (≈ 172000 µM).

Values taken from patent publication US5393765A, “Pharmaceutical compositions with constant erosion volume for zero order controlled release” (Hoffmann-La Roche Inc., priority 1993, dated 1995).
